What was measured:
IL-6 = experiment: Western blot of lumbar spinal cord, IL-6; assay type: in vivo, mice; settings: SNI ipsilateral side, day 7 and 14
Method: (§1) The lumbar spinal cord was removed 7 and 14 days after surgery and 90 min after the intranasal administration of SUM52, corresponding to the peack of the effect. Samples (n = 4 for groups) were homogenized in a homogenization buffer and processed as previously described. Protein samples (40 µg of protein/sample) were separated on 10% SDS-PAGE and transferred onto nitrocellulose membranes (120 min at 100 V) using standard procedures. Membranes were blocked in PBST (PBS containing 0.1% Tween) containing 5% nonfat dry milk for 120 min. […] Blots were then extensively washed and developed using enhanced chemiluminescence detection system (Pierce, Milan, Italy) and signal intensity (pixels/mm^2) quantified (ImageJ, NIH). […] For each sample, the signal intensity was normalized to that of total protein stained by Ponceau S and the acquired images were quantified using Image Lab software. […]

HDAC1 [1] = biological target: T1, HDAC1 (Homo sapiens, UniProt Q13547); experiment: HDAC1 immunoprecipitation & activity assay on treated HCT-116 cells; assay type: cell-based; settings: HCT-116 cells treated at 10 µM for 12 h; in comparison with SAHA
T1 construct: endogenous in cells; host or cells: HCT-116
T1 sequence (Q13547 whole entry): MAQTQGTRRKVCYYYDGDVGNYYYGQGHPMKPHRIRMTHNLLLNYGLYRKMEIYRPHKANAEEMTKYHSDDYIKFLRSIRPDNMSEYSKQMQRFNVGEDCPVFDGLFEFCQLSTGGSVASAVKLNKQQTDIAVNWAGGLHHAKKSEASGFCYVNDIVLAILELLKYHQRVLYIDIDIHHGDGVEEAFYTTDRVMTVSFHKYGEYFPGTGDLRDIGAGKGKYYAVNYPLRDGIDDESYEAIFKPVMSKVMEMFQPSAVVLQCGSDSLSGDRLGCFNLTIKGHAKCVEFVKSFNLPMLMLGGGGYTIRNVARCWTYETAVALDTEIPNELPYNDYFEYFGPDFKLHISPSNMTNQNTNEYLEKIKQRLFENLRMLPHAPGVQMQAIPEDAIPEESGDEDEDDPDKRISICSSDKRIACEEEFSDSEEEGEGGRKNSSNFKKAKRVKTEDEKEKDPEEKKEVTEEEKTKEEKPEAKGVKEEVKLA
Method: HDAC assay: To test the inhibition activity of compounds, the HDAC1 immunoprecipitation (IP) & Activity Assay Kit (Catalog # K342-25; Biovision) was used under the protocol provided by the kit. HCT-116 cell lines were plated in 6 wells and treated with the investigated compounds at 10 µM for 12 h. After incubation, the media was removed, and the cells were washed with PBS (EuroClone) solution (2X). Then, 200 µl/well of lysis buffer with protease inhibitor was added and the cells were scraped and incubated in ice for 30 min. After centrifugation at 10,000 g for 10 min at 4 °C, the supernatant was collected. One hundred micrograms of each extract was incubated with 6 µl of Rabbit HDAC1 antibody and Rabbit IgG and the volume was reached to 500 µl with PBS with protease inhibitors. After incubation at 4 °C overnight a rotary mixer, 25 µl of the protein-A/G bead slurry, previously washed with PBS (2X), was added to the samples and incubated for 1 h at 4 °C. The beads were recovered after 3 washes with 1 ml PBS, by centrifuging at 14,000 g for ~ 10 s and used for HDAC assay.
HDAC assay preparation: For each reaction, 168 µl reaction mix containing HDAC assay buffer and HDAC substrate was prepared, added to the sample and to background control tube, and incubated at 37 °C for 2 h. SAHA was used as a positive control. […] The fluorescence was read at Ex/Em = 380/500 nm with Tecan M1000 plate reader.

SNI mice [2] = experiment: Mechanical allodynia (Dynamic Plantar Aesthesiometer) in SNI mice; assay type: in vivo
Method: Mice were randomly assigned to each treatment group. […] Maria Novella Romanelli, iBET762 (molibresib; (4S)-6-(4-Chlorophenyl)-N-ethyl-8-methoxy-1-methyl-4H-[1,2,4]triazolo[4,3,a][1,4] benzodiazepine-4-acetamide, and SAHA (vorinostat; suberoylanilide hydroxamic acid) (Sigma-Aldrich, Italy) were administered 15 min before the tests. Drugs were dissolved in 5% DMSO. Drug concentrations were prepared in such a way that the necessary dose could be administered in a volume of 10 µl per mouse by intranasal (i.n.) administration. The experimental protocol to test the effect of treatments on behavioral and in vitro tests included 3 control groups: untreated, vehicle (5% DMSO), and saline.
For i.n. administration, mice were slightly anesthetized by 2% isoflurane inhalation and placed in a supine position [30]. A 5 μl aliquot of solution (treatments or vehicle) was slowly dropped alternatively to each nostril with a micropipette tip.
Behavioral testing was performed before surgery to establish a baseline for comparison with post-surgical values. Mono-neuropathy was induced by spared nerve injury and this model of pain in mice has been in use for several years [31]. The SNI procedure was performed as previously described [31].
Animals were habituated to the testing environment daily for at least 2 days before baseline testing. To evaluate onset and progression of pain hypersensitivity, neuropathic mice were monitored by measuring nociceptive responses every 30 min for 3 h before surgery or 3, 7, 10, and 14 days after nerve surgery. Experiments were performed on post-surgery day 7 and 14 when the pain hypersensitivity was well established. Each mouse served as its own control, the responses being measured both before and after surgery. All testing was performed with a blind procedure.
Mechanical allodynia was measured by using Dynamic Plantar Aesthesiometer (Ugo Basile, Bologna, Italy), as described [32]. Nociceptive response for mechanical sensitivity was expressed as mechanical paw withdrawal threshold (PWT) in grams. PWT was quantified by an observer blinded to the treatment.

SNI mice [3] = experiment: Rotarod test; assay type: in vivo; settings: 50 µM i.n., vs vehicle-treated SNI mice
Method: The possible alteration of motor performance induced by each treatment was assessed by rotarod test, as previously described. The integrity of motor coordination was assessed as number of falls from the rod in 30 s.

SNI mice [4] = experiment: Hole-board test; assay type: in vivo; settings: 50 µM i.n., vs vehicle-treated SNI mice
Method: The spontaneous locomotor behavior was evaluated by using the hole-board test. Movements of the animal on the plane represent the spontaneous mobility, and the head-dips in the holes by the mice represent the exploratory activity.

[5] = tested on: p65 subunit of NF-kB (phosphorylated); experiment: Western blot of lumbar spinal cord, p-NF-kB p65; assay type: in vivo, mice; settings: SNI ipsilateral side, day 7 and 14
Method: as §1

HDAC1 [6] = experiment: Western blot of lumbar spinal cord, HDAC1; assay type: in vivo, mice; settings: SNI ipsilateral side, day 7 and 14 post-surgery, i.n.
Method: as §1

## Cc1nnc2n1-c1ccccc1C(c1ccccc1)=N[C@H]2CC(=O)NCCCCCCC(=O)NO [SUM52, (S)-N-hydroxy-7-(2-(1-methyl-6-phenyl-4H-benzo[f][1,2,4]triazolo[4,3-a][1,4]diazepin-4-yl)acetamido)heptanamide]
IL-6
  IL-6 expression: drastically reduced
HDAC1 [1]
  inhibition of HDAC1 enzymatic activity: Partial inhibition
SNI mice [2]; 10–100 µM i.n.
  mechanical antiallodynic activity, ipsilateral side: attenuated SNI-induced mechanical allodynia
SNI mice [2]; SUM52 50 µM vs SUM35 100 µM
  duration of activity in attenuating mechanical allodynia compared with SUM35: more prolonged activity
SNI mice [2]; SUM52 50 µM vs SUM35 100 µM, day 7 and 14 post-surgery
  efficacy in attenuating mechanical allodynia compared with SUM35: higher efficacy
SNI mice [2]; contralateral (uninjured) side of SNI mice
  mechanical analgesic effect in the contralateral side: absence
SNI mice [2]; time-course comparison, combination i-BET762 10 µg, SAHA 3 µg
  mechanical antiallodynic efficacy compared with SAHA + iBET762 combination: comparable efficacy
SNI mice [3]
  motor coordination (rotarod test): no alteration
SNI mice [4]
  exploratory activity (hole board test): no alteration
  spontaneous mobility (hole board test): no alteration
[5]
  phosphorylation of the p65 subunit of NF-kB: robustly reduced by SUM52 up to baseline values
HDAC1 [6]
  spinal HDAC1 protein expression: restored both epigenetic enzyme levels to control values

— publication PMC9606187, “Dual HDAC/BRD4 Inhibitors Relieves Neuropathic Pain by Attenuating Inflammatory Response in Microglia After Spared Nerve Injury” (Neurotherapeutics, 2022)
